From article PMC2721690 (2009) come the findings set out here.

Holding throughout (experiment): ITC
(In general: In ITC the heat of successive injections is recorded.)

The test system of test [1] is GR (xpt-pbuX guanine riboswitch) (RNA, riboswitch) GGACAUAUAAUCGCGUGGAUAUGGCACGCAAGUUUCUACCGGGCACCGUAAAUGUCCGACUAUGUCC
Conditions: 100 mM KCl, 10 mM MgCl2.

Test [2] relates to GRA (GR C74U) (RNA, riboswitch) GGACAUAUAAUCGCGUGGAUAUGGCACGCAAGUUUCUACCGGGCACCGUAAAUGUCCGAUUAUGUCC
As to conditions: 100 mM KCl, 10 mM MgCl2; for KD: apparent.

Test [3] relates to GR(A21G/U75C) (RNA, riboswitch) GGACAUGUAAUCGCGUGGAUAUGGCACGCAAGUUUCUACCGGGCACCGUAAAUGUCCGACCAUGUCC
As to conditions: 100 mM KCl, 10 mM MgCl2; 50 mM K-HEPES, pH 7.5, 30 °C; apparent.

For test [4], the system named is GRA(A21U/U75A) (RNA, riboswitch) GGACAUUUAAUCGCGUGGAUAUGGCACGCAAGUUUCUACCGGGCACCGUAAAUGUCCGAUAAUGUCC
Conditions: 100 mM KCl, 10 mM MgCl2; 50 mM K-HEPES, pH 7.5, 30 °C; apparent.

In test [5] the test system is GRA(A21G/U75C) (RNA, riboswitch) GGACAUGUAAUCGCGUGGAUAUGGCACGCAAGUUUCUACCGGGCACCGUAAAUGUCCGAUCAUGUCC
As to conditions: 100 mM KCl, 10 mM MgCl2; 50 mM K-HEPES, pH 7.5, 30 °C; apparent.

Test [6] concerns GR(A21U/U75A) (RNA, riboswitch) GGACAUUUAAUCGCGUGGAUAUGGCACGCAAGUUUCUACCGGGCACCGUAAAUGUCCGACAAUGUCC
As to conditions: 100 mM KCl, 10 mM MgCl2; 50 mM K-HEPES, pH 7.5, 30 °C; apparent.

[7] abbreviates: 50 mM K-HEPES, pH 7.5, 30 °C, apparent.
Where [8] appears, read: data not shown, text says "GR or GRA".
[9] abbreviates: 50 mM K-HEPES, pH 7.5, 30 °C, no detectable binding.

Consider `CNc1nc2[nH]cnc2c(=O)[nH]1`, for which, in test [1] (50 mM K-HEPES, pH 7.5, 30 °C, data not shown), the binding entry is “no”.

Consider `COc1nc(N)nc2[nH]cnc12`, for which the KD was found to be 23 ± 6 µM in test [1] (setting [7]) and 20 ± 6 µM in test [2] (50 mM K-HEPES, pH 7.5, 30 °C).

Take `CSc1nc(N)nc2[nH]cnc12`: the binding entry in test [1] (setting [8]) is on record as “no”.

On to `Nc1nc(=S)c2[nH]cnc2[nH]1`, for which the KD in test [1] (setting [7]) came to 0.073 µM. On to `Nc1nc(Br)c2[nH]cnc2n1`, for which the KD was found to be 2.1 ± 0.6 µM in test [1] (setting [7]) and 2.7 ± 1.2 µM in test [2] (50 mM K-HEPES, pH 7.5, 30 °C). For `Nc1nc(Cl)c2[nH]cnc2n1`, the KD in test [3] stood at 24 ± 6.0 µM; in test [1] (setting [7]), 0.89 ± 0.06 µM; in test [2] (50 mM K-HEPES, pH 7.5, 30 °C) it was 0.72 ± 0.04 µM. As for `Nc1nc(F)nc2[nH]cnc12`, the KD in test [2] (50 mM K-HEPES, pH 7.5, 30 °C) amounted to 4.0 ± 1.1 µM.

On to `Nc1nc(N)c2[nH]cnc2n1`, for which the KD worked out at 13 ± 1.1 µM in test [3] and 4.1 ± 0.6 µM in test [1] (setting [7]). With `Nc1nc(OCc2ccccc2)c2[nH]cnc2n1`, the binding result in test [1] (setting [8]) is on record as “no”. `Nc1nc2[nH]cnc2c(=O)[nH]1`: the binding entry in test [2] (setting [9]) is on record as “no”. As for `Nc1ncc2[nH]cnc2n1`, the KD in test [1] (setting [7]) is 4.4 ± 1.2 µM.

Consider `Nc1ncnc2[nH]cnc12`, for which the KD came to 2.1 ± 0.19 µM in test [4]; 6.0 ± 1.1 µM in test [5]; 0.47 ± 0.04 µM in test [2] (50 mM K-HEPES, pH 7.5, 30 °C). Moreover, the binding result in test [1] (setting [9]) is listed as “no”. Consider `O=c1[nH]c(=O)c2[nH]cnc2[nH]1`, for which the binding result in test [2] (setting [9]) is recorded as “no”.

On to `O=c1[nH]cnc2nc[nH]c12`, for which the results for the KD in test [3] and in test [6] were 9.5 ± 0.22 µM and 3.3 ± 0.32 µM, respectively. In addition, the binding result is “yes” in test [1] (pH 7.5 to 6.0, no change, apparent) and “no” in test [2] (setting [9]). Consider `c1coc(CNc2ncnc3[nH]cnc23)c1`, for which the binding result in test [2] (setting [8]) is “no”.
